Results on 8 molecules are retold here after patent publication US20190077802A1, “DIFLUORO-(2-SUBSTITUTED CARBAMOYL-1,6-DIAZA-BICYCLO [3.2.1] OCT-6-YLOXY) ACETIC ACID COMPOUNDS AND THEIR USE IN TREATMENT OF BACTERIAL INFECTIONS” (WOCKHARDT LIMITED, priority 2015, published 2019).

Values after ≈ are worked out from the molar mass of the structure shown.

Common to all, as to test: Agar dilution MIC (CLSI)
Test [1] deals with E. coli 13353. The class given is cell-based. The conditions noted are these: Escherichia coli, Mueller Hinton Agar. The procedure: (§1) The biological activity of representative compounds according to the invention against various bacterial strains was investigated. In a typical study, overnight grown bacterial cultures were diluted appropriately and inoculated on the agar media containing doubling dilutions of the test compounds. Observations for growth or no growth was performed after 16-20 hours of incubation at 35±2° C. in the ambient air. The overall procedure was performed as per Clinical and Laboratory Standards Institute (CLSI) recommendations, (Clinical and Laboratory Standards Institute (CLSI), Performance Standards for Antimicrobial Susceptibility Testing, 20th Informational Supplement, M07-A9, Volume 32, No. 2, 2012). Molten Mueller Hinton Agar (MHA) (BD, USA) containing serial dilutions of each antibacterial agent were poured on to the plates and allowed to solidify. Appropriate suspensions from the freshly grown cultures were prepared in normal saline so that about 10^4 CFU/spot of the organism was delivered on to the drug containing agar plates using automated multipoint inoculator (Mast, UK). The plates were incubated in Biochemical oxygen demand (BOD) incubator at 37° C. for 18 hours and then examined for growth.
(§2) The Table 2 depicts the antibacterial activity profile of compounds according to present invention against various multidrug resistant bacterial strains.

For test [2], the system named is E. coli 7 MP. Format: cell-based. The conditions noted are these: Escherichia coli, Mueller Hinton Agar. On the procedure: as §1, §2
Test [3] concerns E. coli M 49. The class given is cell-based. Particulars: Escherichia coli, M49, Mueller Hinton Agar. The procedure: as §1, §2
In test [4] the test system is E. coli M 50. The class given is cell-based. Particulars: Escherichia coli, M50, Mueller Hinton Agar. The procedure: as §1, §2
Test [5] relates to K. pneumoniae H 523. Format: cell-based. The conditions noted are these: Klebsiella pneumoniae, H523, Mueller Hinton Agar. The procedure: as §1, §2
Test [6] relates to K. pneumoniae H 525. The class given is cell-based. The conditions noted are these: Klebsiella pneumoniae, H525, Mueller Hinton Agar. On the procedure: as §1, §2
Test [7] relates to K. pneumoniae H 521. The class given is cell-based. The conditions noted are these: Klebsiella pneumoniae, H521, Mueller Hinton Agar. On the procedure:
as §1, §2

Test [8] deals with K. pneumoniae H 522. The class given is cell-based. Particulars: Klebsiella pneumoniae, H522, Mueller Hinton Agar. The procedure: as §1, §2
In test [9] the test system is E. coli M 36. The class given is cell-based. The conditions noted are these: Escherichia coli, M36, Mueller Hinton Agar. On the procedure:
as §1, §2

The subject of test [10] is E. coli 13352. Format: cell-based. Particulars: Escherichia coli, Mueller Hinton Agar. On the procedure:
as §1, §2

The test system of test [11] is E. coli 13351. The class given is cell-based. The conditions noted are these: Escherichia coli, Mueller Hinton Agar. On the procedure: as §1, §2
Test [12] has as its system E. coli S 18. Format: cell-based. The conditions noted are these: Escherichia coli, S18, Mueller Hinton Agar. The procedure:
as §1, §2

The subject of test [13] is E. coli M 138. The class given is cell-based. Particulars: Escherichia coli, M138, Mueller Hinton Agar. On the procedure: as §1, §2
Test [14] relates to KP ATCC 700603. The class given is cell-based, K. pneumoniae. The conditions noted are these: Klebsiella pneumoniae, ATCC700603, Mueller Hinton Agar. The procedure: as §1, §2
Test [15] deals with E. coli H 483. The class given is cell-based. The conditions noted are these: Escherichia coli, H483, Mueller Hinton Agar. On the procedure: as §1, §2

As for `O=C(NOC[C@@H]1CCCN1)[C@@H]1CC[C@@H]2CN1C(=O)N2OC(F)(F)C(=O)O` [Example 1], the MIC turned out to be 2 µg/mL (≈ 5.29 µM) in [1]; 4 µg/mL (≈ 10.6 µM) in test [2]; 8 µg/mL (≈ 21.1 µM) in [3]; 2 µg/mL (≈ 5.29 µM) in [4]; 2 µg/mL (≈ 5.29 µM) in [5]; 2 µg/mL (≈ 5.29 µM) in test [6]. Moreover, the MIC stood at 4 µg/mL (≈ 10.6 µM) in [7]; 2 µg/mL (≈ 5.29 µM) in test [8]; 2 µg/mL (≈ 5.29 µM) in [9]; 2 µg/mL (≈ 5.29 µM) in test [10]; 2 µg/mL (≈ 5.29 µM) in test [11]; 2 µg/mL (≈ 5.29 µM) in [12]. For the same molecule, the results for the MIC in test [13] and in [14] were 2 µg/mL (≈ 5.29 µM) and over 32 µg/mL, respectively.

As to `O=C(NOC[C@H]1CCCN1)[C@@H]1CC[C@@H]2CN1C(=O)N2OC(F)(F)C(=O)O` [Example 2], the MIC stood at 0.5 µg/mL (≈ 1.32 µM) in test [1]; 2 µg/mL (≈ 5.29 µM) in test [2]; 2 µg/mL (≈ 5.29 µM) in [3]; 1 µg/mL (≈ 2.64 µM) in test [4]; 1 µg/mL (≈ 2.64 µM) in test [5]; 1 µg/mL (≈ 2.64 µM) in test [6]. Also, the MIC in test [7] is 1 µg/mL (≈ 2.64 µM); in test [8], 1 µg/mL (≈ 2.64 µM); in [9], 0.5 µg/mL (≈ 1.32 µM); in [10] it was 1 µg/mL (≈ 2.64 µM); in [11], 1 µg/mL (≈ 2.64 µM); in test [13], 1 µg/mL (≈ 2.64 µM). Moreover, in test [14], the MIC is over 32 µg/mL.

Take `O=C(NOC1CCNC1)[C@@H]1CC[C@@H]2CN1C(=O)N2OC(F)(F)C(=O)O` (some centres unmarked) [Example 3]: the MIC in test [1] is 4 µg/mL (≈ 11 µM); in test [2] it was 8 µg/mL (≈ 22 µM); in [3], 8 µg/mL (≈ 22 µM); in [4], 4 µg/mL (≈ 11 µM); in [5], 4 µg/mL (≈ 11 µM); in test [6], 4 µg/mL (≈ 11 µM). In addition, the MIC in [7] was 4 µg/mL (≈ 11 µM); in test [15] it was over 32 µg/mL; in test [8], 4 µg/mL (≈ 11 µM); in test [9] it was 4 µg/mL (≈ 11 µM); in [10], 4 µg/mL (≈ 11 µM); in test [11] it was 4 µg/mL (≈ 11 µM). The MIC in test [12] was 16 µg/mL (≈ 43.9 µM); in test [13], 4 µg/mL (≈ 11 µM); in test [14], over 32 µg/mL.

As for `O=C(NOC[C@H]1CCCCN1)[C@@H]1CC[C@@H]2CN1C(=O)N2OC(F)(F)C(=O)O` [Example 4], the MIC came out at 1 µg/mL (≈ 2.55 µM) in [1]; 2 µg/mL (≈ 5.1 µM) in test [2]; 4 µg/mL (≈ 10.2 µM) in [3]; 2 µg/mL (≈ 5.1 µM) in test [4]; 1 µg/mL (≈ 2.55 µM) in test [5]; 1 µg/mL (≈ 2.55 µM) in test [6]. The MIC in [7] is 2 µg/mL (≈ 5.1 µM); in test [15], over 32 µg/mL; in test [8], 1 µg/mL (≈ 2.55 µM); in test [9] it was 1 µg/mL (≈ 2.55 µM); in [10], 1 µg/mL (≈ 2.55 µM); in [12] it was 2 µg/mL (≈ 5.1 µM). Moreover, the MIC is 2 µg/mL (≈ 5.1 µM) in test [13] and over 32 µg/mL in [14].

With `O=C(NOC[C@@H]1CCCCN1)[C@@H]1CC[C@@H]2CN1C(=O)N2OC(F)(F)C(=O)O` [Example 5], the MIC in test [1] is 4 µg/mL (≈ 10.2 µM); in [2], 8 µg/mL (≈ 20.4 µM); in test [3], 8 µg/mL (≈ 20.4 µM); in [4], 4 µg/mL (≈ 10.2 µM); in test [5] it was 4 µg/mL (≈ 10.2 µM); in test [6] it was 4 µg/mL (≈ 10.2 µM). Moreover, the MIC worked out at 4 µg/mL (≈ 10.2 µM) in test [7]; 4 µg/mL (≈ 10.2 µM) in test [8]; 4 µg/mL (≈ 10.2 µM) in test [9]; 4 µg/mL (≈ 10.2 µM) in test [10]; 8 µg/mL (≈ 20.4 µM) in [11]; 4 µg/mL (≈ 10.2 µM) in test [12]. Also, the MIC in test [13] is 4 µg/mL (≈ 10.2 µM); in [14], over 32 µg/mL.

Regarding `O=C(NOC[C@H]1CCCCCN1)[C@@H]1CC[C@@H]2CN1C(=O)N2OC(F)(F)C(=O)O` [Example 6], the MIC in [1] came out at 1 µg/mL (≈ 2.46 µM); in test [2], 4 µg/mL (≈ 9.84 µM); in [3], 8 µg/mL (≈ 19.7 µM); in test [4], 2 µg/mL (≈ 4.92 µM); in test [5], 2 µg/mL (≈ 4.92 µM); in [6] it was 1 µg/mL (≈ 2.46 µM). Further, the MIC in test [7] is 2 µg/mL (≈ 4.92 µM); in test [15], over 32 µg/mL; in test [8], 2 µg/mL (≈ 4.92 µM); in test [9] it was 1 µg/mL (≈ 2.46 µM); in test [10], 2 µg/mL (≈ 4.92 µM); in [11], 2 µg/mL (≈ 4.92 µM). Also, the MIC was 2 µg/mL (≈ 4.92 µM) in [12], 2 µg/mL (≈ 4.92 µM) in test [13] and over 32 µg/mL in [14].

As for `O=C(NOC[C@@H]1CCCCCN1)[C@@H]1CC[C@@H]2CN1C(=O)N2OC(F)(F)C(=O)O` [Example 7], the MIC in test [1] is 4 µg/mL (≈ 9.84 µM); in [2], 4 µg/mL (≈ 9.84 µM); in test [3], 2 µg/mL (≈ 4.92 µM); in test [4], 2 µg/mL (≈ 4.92 µM); in [5], 2 µg/mL (≈ 4.92 µM); in test [6], 2 µg/mL (≈ 4.92 µM). Further, the minimum inhibitory concentration (MIC) in test [7] is 2 µg/mL (≈ 4.92 µM); in [8] it was 2 µg/mL (≈ 4.92 µM); in [9], 4 µg/mL (≈ 9.84 µM); in [10], 2 µg/mL (≈ 4.92 µM); in test [11], 2 µg/mL (≈ 4.92 µM); in test [13], 4 µg/mL (≈ 9.84 µM). Further, the MIC in test [14] was over 32 µg/mL.

Turning to `NCCONC(=O)[C@@H]1CC[C@@H]2CN1C(=O)N2OC(F)(F)C(=O)O` [Example 8], the MIC in test [1] was 4 µg/mL (≈ 11.8 µM); in test [2] it was 8 µg/mL (≈ 23.6 µM); in test [3] it was 4 µg/mL (≈ 11.8 µM); in test [4], 4 µg/mL (≈ 11.8 µM); in [5], 4 µg/mL (≈ 11.8 µM); in test [6], 4 µg/mL (≈ 11.8 µM). The MIC in [7] is 4 µg/mL (≈ 11.8 µM); in test [15], over 32 µg/mL; in test [8] it was 4 µg/mL (≈ 11.8 µM); in [9] it was 2 µg/mL (≈ 5.91 µM); in test [10], 4 µg/mL (≈ 11.8 µM); in [11], 4 µg/mL (≈ 11.8 µM). Also, the MIC is 4 µg/mL (≈ 11.8 µM) in test [12], 4 µg/mL (≈ 11.8 µM) in test [13] and over 32 µg/mL in test [14].
